For six compounds, Activity, IC50 and inhibition results are on record in ChEMBL document CHEMBL2150930, “Design, synthesis and pharmacological evaluation of novel tacrine-caffeic acid hybrids as multi-targeted compounds against Alzheimer's disease” (Bioorg Med Chem Lett, 2012).

Active and inactive are the calls of the source. The calls are words filed in the database; no cut-off is given here.

The test system of series [1] is HT-22. Briefly: […] against mouse HT22 cells at 100 uM after 30 mins by LDH release assay. The settings on record: ht-22, 0.5 h. It counts as cell-based.
Series [2] is described as follows: Antioxidant activity against Cu2+-mediated ROS formation in HEPES buffer at pH 7.4 assessed as compound-Cu2+ complex formation at 40 uM after 5 mins by UV-vis spectrophotometric analysis. Type of series: functional.
A further series addresses Acetylcholinesterase (Electrophorus electricus, UniProt O42275). Briefly: Inhibition of electric eel AChE using […] as substrate preincubated for 20 mins by Ellman's method. For orientation: Ellman's reagent forms a yellow product with free thiols.
In series [3] the test system is HT-22. Briefly: Cytotoxicity against mouse HT22 cells assessed as cell viability at 30 uM after 24 hrs by MTT assay. Type of series: cell-based. The settings on record: ht-22, 24 h. On the technique in general: Tetrazolium dyes change colour on reduction, which living cells bring about.
In series [4] the test system is Radical scavenging activity.
Description: Antioxidant activity of the compound assessed as DPPH radical scavenging activity after 60 mins
Series [5] deals with Acetylcholinesterase (Electrophorus electricus) (UniProt O42275). The series can be described thus: Mixed type inhibition of electric eel AChE using […] as substrate by Lineweaver-Burk plot analysis.
Acetylcholinesterase (Electrophorus electricus), sequence (O42275 24-633 limits assumed): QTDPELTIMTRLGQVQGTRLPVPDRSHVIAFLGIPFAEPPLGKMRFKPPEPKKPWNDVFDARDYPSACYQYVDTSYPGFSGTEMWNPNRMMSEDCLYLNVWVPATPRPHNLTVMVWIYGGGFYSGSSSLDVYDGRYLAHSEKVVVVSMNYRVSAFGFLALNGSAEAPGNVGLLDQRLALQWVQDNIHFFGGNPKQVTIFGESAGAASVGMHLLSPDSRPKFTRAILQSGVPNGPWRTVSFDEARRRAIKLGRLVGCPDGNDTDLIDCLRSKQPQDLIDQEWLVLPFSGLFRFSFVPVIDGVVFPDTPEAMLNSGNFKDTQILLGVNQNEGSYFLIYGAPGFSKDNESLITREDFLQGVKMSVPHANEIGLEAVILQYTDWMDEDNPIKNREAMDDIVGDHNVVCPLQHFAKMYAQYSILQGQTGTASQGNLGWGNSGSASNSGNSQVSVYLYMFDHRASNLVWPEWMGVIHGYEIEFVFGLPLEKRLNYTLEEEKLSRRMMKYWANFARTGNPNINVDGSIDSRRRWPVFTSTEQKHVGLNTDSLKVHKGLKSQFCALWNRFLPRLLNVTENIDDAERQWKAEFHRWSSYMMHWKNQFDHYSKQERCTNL
Another series concerns the target Cholinesterase (Equus caballus, UniProt P81908).
For series [6], the system named is HT-22. The series can be described thus: Neuroprotective activity in mouse HT22 cells assessed as protection against H2O2-induced cell death at 3 to 30 uM preincubated for 30 mins prior to H2O2 challenge measured after 24 hrs by MTT assay. It counts as functional, cell-based.
Series [7] relates to HT-22. Briefly: Cytotoxicity against mouse HT22 cells at 100 uM after 30 mins by LDH release assay. It counts as cell-based. The settings on record: ht-22, 0.5 h. In general terms: LDH leaks from cells whose membrane has failed.

Acetylcholinesterase, sequence (O42275 whole entry): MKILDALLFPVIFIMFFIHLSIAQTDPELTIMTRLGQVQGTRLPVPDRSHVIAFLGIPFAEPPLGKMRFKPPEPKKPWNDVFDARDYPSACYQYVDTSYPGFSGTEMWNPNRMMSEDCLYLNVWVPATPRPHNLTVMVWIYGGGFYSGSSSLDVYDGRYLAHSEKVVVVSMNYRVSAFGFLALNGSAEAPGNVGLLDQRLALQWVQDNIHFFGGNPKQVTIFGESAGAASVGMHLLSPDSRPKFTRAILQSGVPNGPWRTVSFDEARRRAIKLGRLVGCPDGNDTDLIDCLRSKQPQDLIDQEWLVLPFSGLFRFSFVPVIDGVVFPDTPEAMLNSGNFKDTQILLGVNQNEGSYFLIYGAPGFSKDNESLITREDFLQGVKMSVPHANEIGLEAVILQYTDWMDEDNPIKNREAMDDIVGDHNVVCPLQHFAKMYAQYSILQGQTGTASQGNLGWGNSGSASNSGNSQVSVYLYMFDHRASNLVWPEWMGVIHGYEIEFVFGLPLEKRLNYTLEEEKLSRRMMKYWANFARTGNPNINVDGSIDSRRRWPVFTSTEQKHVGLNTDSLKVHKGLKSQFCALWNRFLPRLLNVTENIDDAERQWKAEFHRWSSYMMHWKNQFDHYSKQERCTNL
Cholinesterase, sequence (P81908 whole entry): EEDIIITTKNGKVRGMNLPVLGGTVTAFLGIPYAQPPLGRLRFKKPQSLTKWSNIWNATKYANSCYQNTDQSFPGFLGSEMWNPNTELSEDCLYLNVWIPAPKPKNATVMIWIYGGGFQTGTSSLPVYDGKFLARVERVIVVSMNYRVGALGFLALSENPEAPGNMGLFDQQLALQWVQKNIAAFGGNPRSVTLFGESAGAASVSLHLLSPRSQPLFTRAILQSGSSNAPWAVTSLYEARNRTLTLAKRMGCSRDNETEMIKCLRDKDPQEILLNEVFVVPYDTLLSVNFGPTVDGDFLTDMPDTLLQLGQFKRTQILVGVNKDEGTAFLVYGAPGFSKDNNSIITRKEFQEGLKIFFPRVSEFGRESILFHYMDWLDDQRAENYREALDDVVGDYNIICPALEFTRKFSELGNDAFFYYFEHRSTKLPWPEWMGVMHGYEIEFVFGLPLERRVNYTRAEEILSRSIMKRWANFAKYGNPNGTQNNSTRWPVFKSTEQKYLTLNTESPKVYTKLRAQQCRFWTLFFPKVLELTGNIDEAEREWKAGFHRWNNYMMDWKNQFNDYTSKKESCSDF

In general, IC50 refers to the concentration that gives 50% inhibition. A lower IC50 goes with greater potency in that assay. `O=C(/C=C/c1ccc(O)c(O)c1)NCCCNc1c2c(nc3cc(Cl)ccc13)CCCC2`: the Activity result with HT-22 [1] is given as “Toxic”; in the series with HT-22 [3], “Toxic”; with HT-22 [7] it was “Non-toxic”. The result (in [2]; with HT-22 [6]) was Active. For the same compound, the IC50 was 0.3 µM against Acetylcholinesterase, 4.8 µM in series [4] and 29.5 µM against Cholinesterase. Further, in series [5], the inhibition entry was “Active”.
As for `O=C(/C=C/c1ccc(O)c(O)c1)NCCNc1c2c(nc3ccccc13)CCCC2`, the 50% inhibitory concentration (IC50) on Acetylcholinesterase came out at 1.8 µM; in series [4], 14.1 µM; against Cholinesterase, 2.3 µM.
With `O=C(/C=C/c1ccc(O)c(O)c1)NCCCCCCNc1c2c(nc3ccccc13)CCCC2`, the IC50 on Acetylcholinesterase is 1.9 µM; in [4] it was 10.4 µM; on Cholinesterase it was 3.9 µM.
The like results for `O=C(/C=C/c1ccc(O)c(O)c1)NCCCNc1c2c(nc3ccccc13)CCCC2` were, in that order, 0.0088 µM, 11.1 µM and 0.0837 µM.
Consider `O=C(/C=C/c1ccc(O)c(O)c1)NCCCCCCNc1c2c(nc3cc(Cl)ccc13)CCCC2`, for which the half-inhibitory concentration (IC50) against Acetylcholinesterase worked out at 6.3 µM; in series [4], 4.7 µM; against Cholinesterase, 3.8 µM. The results for the Activity entry with HT-22 [3] and with HT-22 [7] were “Toxic” and “Non-toxic”, respectively. Also, the result in the series on HT-22 [6] was Active.
Turning to `O=C(/C=C/c1ccc(O)c(O)c1)NCCNc1c2c(nc3cc(Cl)ccc13)CCCC2`, the IC50 against Acetylcholinesterase is 1 µM; in series [4], 9.7 µM; at Cholinesterase, 5.5 µM. Further, in the series with HT-22 [6], the result was Active.
